# Values of other authors, collected in patent publication US20220401449A1, “COMPOSITIONS PROVIDING SLOW RELEASE OF CAFFEINE AND BEVERAGES COMPRISING THE SAME” (priority 2021, published 2022).
# Where two headings read alike, the source gives them in different places.
smiles,measurement,setting,value
Cn1c(=O)c2c(ncn2C)n(C)c1=O [caffeine],caffeine's saturation concentration in water,80° C.,about 200 mg/ml
same,caffeine's saturation concentration in water,room temperature,about 16 mg/ml
